Legend:
[1] = xn = mol fraction of the nth substance listed; conditions: 101 kPa, Liquid; for speed of sound: Sing-around technique in a fixed-path interferometer
[2] = refractive index (Na D-line) (dimensionless); xn = mol fraction of the nth substance listed; conditions: 101 kPa, Liquid

CCCCC(CC)CO (stereo not given) [2-ethyl-1-hexanol] + c1ccccc1
Conditions | mass density, [1] [kg/m3] | refractive index, [2] | speed of sound, [1] [m/s] | viscosity, [1] [mPa·s]
298.15 K, x2 = 0 | 829.07 | 1.4287 | 1319 | 8.418
298.15 K, x2 = 0.0606 | 829.89 | 1.4332 | 1313 | 7.185
298.15 K, x2 = 0.1203 | 830.77 | 1.4376 | 1308 | 6.102
298.15 K, x2 = 0.1798 | 831.79 | 1.4418 | 1304 | 5.153
298.15 K, x2 = 0.2384 | 832.95 | 1.4463 | 1299 | 4.364
298.15 K, x2 = 0.3132 | 834.73 | 1.4519 | 1293 | 3.469
298.15 K, x2 = 0.3915 | 836.9 | 1.4577 | 1288 | 2.697
298.15 K, x2 = 0.4515 | 838.87 | 1.4624 | 1283 | 2.222
298.15 K, x2 = 0.526 | 841.73 | 1.468 | 1278 | 1.749
298.15 K, x2 = 0.5849 | 844.27 | 1.4726 | 1275 | 1.474
298.15 K, x2 = 0.6557 | 847.83 | 1.4778 | 1273 | 1.202
298.15 K, x2 = 0.726 | 851.85 | 1.4829 | 1272 | 1.008
298.15 K, x2 = 0.7937 | 856.26 | 1.4877 | 1273 | 0.866
298.15 K, x2 = 0.8592 | 861.07 | 1.492 | 1276 | 0.764
298.15 K, x2 = 0.9299 | 867.04 | 1.4953 | 1284 | 0.68
303.15 K, x2 = 0 | 825.39 | 1.4266 | 1301 | 7.144
303.15 K, x2 = 0.0606 | 826.11 | 1.4312 | 1297 | 5.969
303.15 K, x2 = 0.1203 | 826.92 | 1.4355 | 1292 | 4.984
303.15 K, x2 = 0.1798 | 827.89 | 1.4397 | 1287 | 4.114
303.15 K, x2 = 0.2384 | 828.98 | 1.4442 | 1282 | 3.409
303.15 K, x2 = 0.3132 | 830.66 | 1.4499 | 1275 | 2.624
303.15 K, x2 = 0.3915 | 832.74 | 1.4557 | 1269 | 2.002
303.15 K, x2 = 0.4515 | 834.63 | 1.4604 | 1264 | 1.621
303.15 K, x2 = 0.526 | 837.35 | 1.4661 | 1258 | 1.305
303.15 K, x2 = 0.5849 | 839.78 | 1.4708 | 1255 | 1.127
303.15 K, x2 = 0.6557 | 843.22 | 1.4761 | 1252 | 0.953
303.15 K, x2 = 0.726 | 847.09 | 1.4811 | 1252 | 0.852
303.15 K, x2 = 0.7937 | 851.36 | 1.4858 | 1253 | 0.758
303.15 K, x2 = 0.8592 | 856.01 | 1.4899 | 1256 | 0.701
303.15 K, x2 = 0.9299 | 861.77 | 1.4934 | 1264 | 0.654
308.15 K, x2 = 0 | 821.68 | 1.4245 | 1283 | 6.09
308.15 K, x2 = 0.0606 | 822.28 | 1.4292 | 1278 | 5.084
308.15 K, x2 = 0.1203 | 823.05 | 1.4335 | 1273 | 4.22
308.15 K, x2 = 0.1798 | 823.96 | 1.4378 | 1269 | 3.49
308.15 K, x2 = 0.2384 | 825.01 | 1.4423 | 1265 | 2.903
308.15 K, x2 = 0.3132 | 826.61 | 1.448 | 1260 | 2.272
308.15 K, x2 = 0.3915 | 828.57 | 1.4539 | 1255 | 1.741
308.15 K, x2 = 0.4515 | 830.4 | 1.4585 | 1252 | 1.451
308.15 K, x2 = 0.526 | 832.98 | 1.4642 | 1248 | 1.174
308.15 K, x2 = 0.5849 | 835.32 | 1.4689 | 1245 | 1.02
308.15 K, x2 = 0.6557 | 838.62 | 1.4743 | 1242 | 0.881
308.15 K, x2 = 0.726 | 842.36 | 1.4793 | 1240 | 0.785
308.15 K, x2 = 0.7937 | 846.49 | 1.4839 | 1239 | 0.713
308.15 K, x2 = 0.8592 | 850.99 | 1.4879 | 1240 | 0.659
308.15 K, x2 = 0.9299 | 856.56 | 1.4913 | 1243 | 0.605
